From patent US20240034736A1, “HSD17B13 INHIBITORS AND USES THEREOF” (FL2022-001, Inc., priority 2020, published 2024)

molecular target: Recombinant human HSD17B13 enzyme (Homo sapiens (Human), UniProt Q7Z5P4); test: HSD17b13 NAD(P)H-Glo Biochemical Assay; conditions: 50 uM estradiol, 1 mM NAD+; read-out: HSD17β13 IC50
How it was run: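 Recombinant human HSD17B13 was pre-incubated with inhibitor for 20 min at RT in 20 mM Tris pH 7.4 with 0.002% Tween-20 and 0.02% BSA. Reaction then ran with 50 uM estradiol and 1 mM NAD+ (final) for 3 h at 37° C. NADH formed was detected by NAD(P)H-Glo luminescence after 1 h at RT.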

Sequence of Recombinant human HSD17B13 enzyme (Q7Z5P4 20-300): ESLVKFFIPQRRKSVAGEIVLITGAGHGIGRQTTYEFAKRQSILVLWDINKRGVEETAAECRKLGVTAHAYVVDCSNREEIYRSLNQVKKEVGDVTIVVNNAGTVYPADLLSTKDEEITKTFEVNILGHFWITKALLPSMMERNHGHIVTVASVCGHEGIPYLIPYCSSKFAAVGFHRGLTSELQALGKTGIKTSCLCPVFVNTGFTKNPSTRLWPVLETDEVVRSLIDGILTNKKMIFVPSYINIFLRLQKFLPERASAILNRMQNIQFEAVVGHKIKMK

IC50 [nM]	Structure (SMILES)
100 to 1000	Oc1ccc(-c2cc3cnn(-c4cc(O)c(F)c(F)c4)c3cc2Cl)c(Cl)c1 [Compound 4.17, 5-(6-Chloro-5-(2-chloro-4-hydroxyphenyl)-1H-indazol-1-yl)-2,3-difluorophenol]
1000 to 30000	CS(=O)(=O)N1CCN(c2cc3cnn(-c4cc(O)c(F)c(C(F)(F)F)c4)c3nn2)CC1 [Compound 28.08, 2-Fluoro-5-(5-(4-(methyl-sulfonyl)piperazin-1-yl)-1H-pyrazolo[3,4-c]pyridazin-1-yl)-3-(trifluoromethyl)phenol]
1000 to 30000	CC(=O)N1CCC(c2ccc3c(cnn3-c3ccc(F)c(O)c3)c2)CC1 [Compound 26, 1-(4-(1-(4-Fluoro-3-hydroxyphenyl)-1H-indazol-5-yl)piperidin-1-yl)ethan-1-one]
100 to 1000	COc1ccc(-c2ccc3c(cnn3-c3cc(O)c(F)c(F)c3F)c2)cc1Cl [Compound 1.03, 5-(5-(3-Chloro-4-methoxyphenyl)-1H-indazol-1-yl)-2,3,4-trifluorophenol]
1000 to 30000	CNS(=O)(=O)C1CN(c2ccc3c(cnn3-c3cc(O)c(F)c(F)c3)c2)C1 [Compound 21.35, 1-(1-(3,4-Difluoro-5-hydroxy-phenyl)-1H-indazol-5-yl)-N-methylazetidine-3-sulfonamide]
1000 to 30000	COC1CN(c2ccc3c(cnn3-c3cc(O)c(F)c(F)c3)c2)C1 [Compound 21.25, 2,3-Difluoro-5-(5-(3-methoxy-azetidin-1-yl)-1H-indazol-1-yl)phenol]
100 to 1000	Oc1cncc(-c2ccc3c(cnn3-c3cc(O)c(F)c(F)c3)c2)c1 [Compound 7.03, 5-(1-(3,4-Difluoro-5-hydroxyphenyl)-1H-indazol-5-yl)pyridine-3-ol]
100 to 1000	Oc1ccc(-c2ccc3c(cnn3-c3ccc(F)c(O)c3)c2)c(C(F)(F)F)c1 [Compound 5.16, 2-Fluoro-5-(5-(4-hydroxy-2-(trifluoromethyl)phenyl)-1H-indazol-1-yl)phenol]
100 to 1000	COC1CCN(c2ccc3c(cnn3-c3cc(O)c(F)c(F)c3)c2)CC1 [Compound 21.20, 2,3-Difluoro-5-(5-(4-methoxy-piperidin-1-yl)-1H-indazol-1-yl)phenol]
100 to 1000	Cc1nn(-c2cc(C(F)(F)F)c(F)c(O)c2F)c2cnc(N3CCOCC34CC4)nc12 [Compound 19.95, 2,6-Difluoro-3-(3-methyl-5-(7-oxa-4-azaspiro[2.5]octan-4-yl)-1H-pyrazolo[4,3-d]pyrimidin-1-yl)-5-(trifluoromethyl)phenol]
1000 to 30000	CS(=O)(=O)N1CCN(c2cc3cnn(-c4ccc(C(F)(F)F)c(O)c4F)c3cn2)CC1 [Compound 19.25, 2-Fluoro-3-(5-(4-(methylsulfonyl)piperazin-1-yl)-1H-pyrazolo[3,4-c]pyridine-1-yl)-6-(trifluoromethyl)phenol]
< 100	Cc1nn(-c2cc(O)c(F)c(C(F)(F)F)c2)c2cnc(N3CCOCC34CC4)cc12 [Compound 19.85, 2-Fluoro-5-(3-methyl-5-(7-oxa-4-azaspiro[2.5]octan-4-yl)-1H-pyrazolo[3,4-c]pyridin-1-yl)-3-(trifluoromethyl)phenol]
100 to 1000	N#Cc1nn(-c2ccc(F)c(O)c2)c2ccc(-c3ccc(O)c(Cl)c3)cc12 [Compound 4.15, 5-(3-Chloro-4-hydroxyphenyl)-1-(4-fluoro-3-hydroxyphenyl)-1H-indazole-3-carbonitrile]
100 to 1000	CNC(=O)c1ccc(-c2ccc3c(cnn3-c3ccc(F)c(O)c3)c2)c(Cl)c1 [Compound 5.26, 3-Chloro-4-(1-(4-fluoro-3-hydroxyphenyl)-1H-indazol-5-yl)-N-methylbenzamide]
1000 to 30000	CS(=O)(=O)N1CCN(c2cc3cnn(-c4ccc(Cl)c(O)c4)c3cn2)CC1 [Compound 19.14, 2-Chloro-5-(5-(4-(methylsulfonyl)piperazin-1-yl)-1H-pyrazolo[3,4-c]pyridine-1-yl)phenol]
1000 to 30000	CC(C)c1nn(-c2cc(O)c(F)c(F)c2)c2ccc(N3CCN(S(C)(=O)=O)CC3)cc12 [Compound 21.03, 2,3-Difluoro-5-(3-isopropyl-5-(4-(methylsulfonyl)piperazin-1-yl)-1H-indazol-1-yl)phenol]
1000 to 30000	Cc1nn(-c2cc(O)c(F)c(C(C)O)c2)c2cnc(N3CCOCC34CC4)cc12 (stereo not drawn) [Compound 19.97, 2-Fluoro-3-(1-hydroxyethyl)-5-(3-methyl-5-(7-oxa-4-azaspiro[2.5]octan-4-yl)-1H-pyrazolo[3,4-c]pyridin-1-yl)phenol]
1000 to 30000	CS(=O)(=O)N1CCN(c2cc3cnn(-c4ccc(Cl)c(O)c4F)c3cn2)CC1 [Compound 19.27, 6-Chloro-2-fluoro-3-(5-(4-(methylsulfonyl)piperazin-1-yl)-1H-pyrazolo[3,4-c]pyridine-1-yl)phenol]
100 to 1000	Oc1cc(-n2ncc3cc(N4CCOCC45CC5)ncc32)cc(C(F)(F)F)c1F [Compound 21.54, 5-(5-(7-Oxa-4-azaspiro[2.5]-octan-4-yl)-1H-pyrazolo[3,4-c]pyridin-1-yl)-2-fluoro-3-(trifluoromethyl)phenol]
100 to 1000	C[C@@H]1COCCN1c1cc2cnn(-c3cc(O)c(F)c(C(F)(F)F)c3)c2cn1 [Compound 21.55, (R)-2-Fluoro-5-(5-(3-methyl-morpholino)-1H-pyrazolo[3,4-c]pyridin-1-yl)-3-(trifluoro-methyl)phenol]
100 to 1000	CN(C)S(=O)(=O)c1ccc(-c2ccc3c(cnn3-c3ccc(F)c(O)c3)c2)cc1 [Compound 5.25, 4-(1-(4-Fluoro-3-hydroxyphenyl)-1H-indazol-5-yl)-N,N-dimethylbenzenesulfonamide]
< 100	Cc1nn(-c2cc(C(F)(F)F)c(Cl)c(O)c2F)c2cc(F)c(N3CCN(S(C)(=O)=O)CC34CC4)cc12 [Compound 19.110, 2-Chloro-6-fluoro-5-(6-fluoro-3-methyl-5-(7-(methylsulfonyl)-4,7-diazaspiro[2.5]octan-4-yl)-1H-indazol-1-yl)-3-(trifluoromethyl)phenol]
100 to 1000	O=S(=O)(c1ccccc1)N1CCN(c2ccc3c(cnn3-c3cc(O)c(F)c(F)c3)c2)CC1 [Compound 21.09, 2,3-Difluoro-5-(5-(4-(phenyl-sulfonyl)piperazin-1-yl)-1H-indazol-1-yl)phenol]
100 to 1000	Oc1ccc(-c2ccc3c(cnn3-c3cc(O)c(F)c(F)c3)c2)cc1Cl [Compound 3.03, 5-(5-(3-Chloro-4-hydroxyphenyl)-1H-indazol-1-yl)-2,3-difluorophenol]
100 to 1000	Oc1cc(-n2ncc3cc(-c4ccc(O)c(Cl)c4)cnc32)ccc1F [Compound 8.01, 2-Chloro-4-(1-(4-fluoro-3-hydroxyphenyl)-1H-pyrazolo[3,4-b]pyridine-5-yl)phenol]

Structure (SMILES)	IC50 [nM]
Oc1cncc(-n2ncc3cc(-c4ccc(O)c(Cl)c4)ccc32)c1 [Compound 17, 5-(5-(3-Chloro-4-hydroxyphenyl)-1H-indazol-1-yl)pyridin-3-ol]	100 to 1000

same assay, conditions: read-out: HSD17β13 inhibition at 10 uM

inhibition at 10 µM [%]	Structure (SMILES)
20	CNC(=O)c1cc(-n2nc(C)c3cc(N4CCOCC45CC5)ncc32)cc(O)c1F [Compound 19.122, 2-Fluoro-3-hydroxy-N-methyl-5-(3-methyl-5-(7-oxa-4-azaspiro[2.5]octan-4-yl)-1H-pyrazolo[3,4-c]pyridin-1-yl)benzamide]
